Measurements published in ChEMBL document CHEMBL3039007, “Structure-based identification of OATP1B1/3 inhibitors” (Mol Pharmacol, 2013).

Key:
[1] = molecular target: T1, Solute carrier organic anion transporter family member 1B1 (Homo sapiens, UniProt Q9Y6L6); conditions: chinese hamster, cho, 10 µM
T1 sequence (Q9Y6L6 whole entry): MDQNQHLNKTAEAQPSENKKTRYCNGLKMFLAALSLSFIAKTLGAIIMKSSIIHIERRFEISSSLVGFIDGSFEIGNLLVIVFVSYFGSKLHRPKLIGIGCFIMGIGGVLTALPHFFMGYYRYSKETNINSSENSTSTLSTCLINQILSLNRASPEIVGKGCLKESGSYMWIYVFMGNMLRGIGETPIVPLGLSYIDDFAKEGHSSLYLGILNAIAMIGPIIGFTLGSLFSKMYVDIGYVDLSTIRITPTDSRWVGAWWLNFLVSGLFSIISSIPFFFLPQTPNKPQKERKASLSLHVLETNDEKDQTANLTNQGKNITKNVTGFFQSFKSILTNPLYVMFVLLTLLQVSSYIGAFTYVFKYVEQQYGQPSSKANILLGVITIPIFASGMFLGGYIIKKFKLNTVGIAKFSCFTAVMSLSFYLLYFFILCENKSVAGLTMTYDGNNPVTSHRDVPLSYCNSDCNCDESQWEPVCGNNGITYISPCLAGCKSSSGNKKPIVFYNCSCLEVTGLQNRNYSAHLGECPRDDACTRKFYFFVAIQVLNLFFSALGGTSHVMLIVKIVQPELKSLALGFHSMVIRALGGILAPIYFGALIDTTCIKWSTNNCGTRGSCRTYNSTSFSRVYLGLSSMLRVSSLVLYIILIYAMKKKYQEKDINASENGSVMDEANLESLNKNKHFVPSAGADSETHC

[2] = molecular target: T2, Solute carrier organic anion transporter family member 1B3 (Homo sapiens, UniProt Q9NPD5); conditions: chinese hamster, cho, 10 µM
T2 sequence (Q9NPD5 whole entry): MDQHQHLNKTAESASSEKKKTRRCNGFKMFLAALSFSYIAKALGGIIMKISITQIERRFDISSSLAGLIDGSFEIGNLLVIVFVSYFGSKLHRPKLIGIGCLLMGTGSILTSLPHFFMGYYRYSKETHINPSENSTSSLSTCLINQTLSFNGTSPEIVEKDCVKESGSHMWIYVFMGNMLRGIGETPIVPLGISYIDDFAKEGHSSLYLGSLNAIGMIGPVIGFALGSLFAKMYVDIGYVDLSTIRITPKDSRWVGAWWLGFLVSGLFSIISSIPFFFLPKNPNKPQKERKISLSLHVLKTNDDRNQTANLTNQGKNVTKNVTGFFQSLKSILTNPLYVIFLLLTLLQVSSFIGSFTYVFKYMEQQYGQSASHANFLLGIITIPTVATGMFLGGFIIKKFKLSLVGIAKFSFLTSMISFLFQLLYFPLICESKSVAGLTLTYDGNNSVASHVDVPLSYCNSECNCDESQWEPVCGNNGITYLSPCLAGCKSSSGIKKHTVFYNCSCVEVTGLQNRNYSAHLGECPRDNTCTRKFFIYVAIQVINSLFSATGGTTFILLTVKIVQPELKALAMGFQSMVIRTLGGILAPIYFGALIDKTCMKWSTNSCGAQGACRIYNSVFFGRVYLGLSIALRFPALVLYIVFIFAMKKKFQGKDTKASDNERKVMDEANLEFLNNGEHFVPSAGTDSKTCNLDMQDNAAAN

Row | SMILES | residual activity [1] [%] | residual activity [2] [%]
1 | CC1=NS(=O)(=O)c2cc(Cl)ccc2N1 [DIAZOXIDE] | 91.81 | 91.61
2 | NC[C@@H]1CC[C@@H](N)[C@@H](O[C@H]2[C@H](O)[C@@H](O[C@H]3O[C@H](CO)[C@@H](O)[C@H](N)[C@H]3O)[C@H](N)C[C@@H]2N)O1 [DIBEKACIN] | 88.15 | 96.4
3 | c1ccc2c(c1)sc1ccccc12 [DIBENZOTHIOPHENE] | 114.7 | 93.83
4 | O=C(CC(=O)c1ccccc1)c1ccccc1 [DIBENZOYLMETHANE] | 129.7 | 118.4
5 | CCCCOc1cc(C(=O)NCCN(CC)CC)c2ccccc2n1.Cl [DIBUCAINE HYDROCHLORIDE] | 103.4 | 94.35
6 | CCCCOC(=O)c1ccccc1C(=O)OCCCC [DIBUTYL PHTHALATE] | 119.5 | 124.6
7 | N#Cc1c(Cl)cccc1Cl [DICHLOBENIL] | 87.7 | 97.91
8 | ClC(Cl)=C(c1ccc(Cl)cc1)c1ccc(Cl)cc1 [DICHLORODIPHENYLDICHLOROETHYLENE] | 94.96 | 103.2
9 | O=C([O-])Cc1ccccc1Nc1c(Cl)cccc1Cl.[Na+] [DICLOFENAC SODIUM] | 110.6 | 71.01
10 | COc1c2ccccc2nc2occc12 [DICTAMNINE] | 151.5 | 118.6
11 | O=c1oc2ccccc2c(O)c1Cc1c(O)c2ccccc2oc1=O [DICUMAROL] | 33.08 | 19.32
12 | CCN(CC)CCOC(=O)C1(C2CCCCC2)CCCCC1.Cl [DICYCLOMINE HYDROCHLORIDE] | 106.9 | 105.3
13 | C/C=C(/C(=C/C)c1ccc(O)cc1)c1ccc(O)cc1 [DIENESTROL] | 48.7 | 61.94
14 | C[C@@H]1CC[C@@]2(OC1)O[C@H]1[C@@H](O)[C@H]3[C@@H]4CC[C@H]5C[C@@H](O[C@@H]6O[C@H](CO)[C@H](O[C@@H]7O[C@H](CO)C(O)[C@H](O[C@@H]8OC[C@@H](O)[C@H](O)[C@H]8O)[C@H]7O[C@@H]7O[C@H](CO)[C@H](O)[C@H](O[C@@H]8O[C@H](CO)[C@@H](O)[C@H](O)[C@H]8O)[C@H]7O)[C@H](O)[C@H]6O)[C@H](O)C[C@]5(C)[C@H]4CC[C@]3(C)[C@H]1[C@@H]2C (some centres not stated) [DIGITONIN] | 76.09 | 98.34
15 | C[C@H]1O[C@@H](O[C@H]2[C@@H](O)C[C@H](O[C@H]3[C@@H](O)C[C@H](O[C@H]4CC[C@@]5(C)[C@H](CC[C@@H]6[C@@H]5CC[C@]5(C)[C@@H](C7=CC(=O)OC7)CC[C@]65O)C4)O[C@@H]3C)O[C@@H]2C)C[C@H](O)[C@@H]1O [DIGITOXIN] | 56.48 | 66.85
16 | Cc1c(O)c(O)cc2c1CC=C1[C@@]2(C)CC[C@@]2(C)[C@@H]3C[C@](C)(C(=O)O)CC[C@]3(C)CC[C@]12C [DIHYDROCELASTROL] | 70.52 | 40.35
17 | CN1C[C@H](C(=O)N[C@]2(C)O[C@@]3(O)[C@@H]4CCCN4C(=O)[C@H](Cc4ccccc4)N3C2=O)C[C@@H]2c3cccc4[nH]cc(c34)C[C@H]21.CS(=O)(=O)O [DIHYDROERGOTAMINE MESYLATE] | 27.06 | 10.07
18 | COc1cc2c(cc1OC)[C@@H]1C(=O)c3ccc4c(c3O[C@@H]1CO2)CC(C(C)C)O4 (some centres not stated) [DIHYDROROTENONE] | 53.61 | 63.71
19 | CN[C@@H]1[C@H](O[C@H]2[C@H](O[C@H]3[C@H](O)[C@@H](O)[C@H](NC(=N)N)[C@@H](O)[C@@H]3NC(=N)N)O[C@@H](C)[C@]2(O)CO)O[C@@H](CO)[C@H](O)[C@H]1O.CN[C@@H]1[C@H](O[C@H]2[C@H](O[C@H]3[C@H](O)[C@@H](O)[C@H](NC(=N)N)[C@@H](O)[C@@H]3NC(=N)N)O[C@@H](C)[C@]2(O)CO)O[C@@H](CO)[C@H](O)[C@H]1O.O=S(=O)(O)O.O=S(=O)(O)O.O=S(=O)(O)O [DIHYDROSTREPTOMYCIN SULFATE] | 78.79 | 99.04
20 | Cc1cccc2c3c(ccc12)C1=C(C(=O)C3=O)[C@@H](C)CO1 [DIHYDROTANSHINONE I] | 111.4 | 129.1
21 | CNC(=O)CSP(=S)(OC)OC [DIMETHOATE] | 106.9 | 114.1

Further lines, results first:

Row | residual activity [1] [%] | residual activity [2] [%] | SMILES
22 | 95.54 | 81.28 | CCN(CC)C(=O)N1CCN(C)CC1.O=C(O)CC(O)(CC(=O)O)C(=O)O [DIETHYLCARBAMAZINE CITRATE]
23 | 108.7 | 107.2 | CCN(CC)C(=O)c1cccc(C)c1 [DIETHYLTOLUAMIDE]
24 | 201 | 87.47 | O=C(O)c1cc(-c2ccc(F)cc2F)ccc1O [DIFLUNISAL]
25 | 117.5 | 105.6 | COc1cc(OC)c(-c2c(OC)cc(OC)cc2OC)c(OC)c1 [DIFUCOL HEXAMETHYL ETHER]
26 | 74.37 | 74.86 | CC(C)C1COc2cc3oc(=O)ccc3cc2O1 (configuration not stated) [DIHYDRO-OBLIQUIN]
27 | 98.02 | 102.8 | COc1c(C(=O)O)ccc2c1CCC(C)(C)O2 [DIHYDRO-beta-TUBAIC ACID]
28 | 24.21 | 39.09 | C=C1CCC(=O)C(C)CCC2C1CC2(C)C (configuration not stated) [DIHYDROCARYOPHYLLEN-5-ONE]
29 | 71.88 | 77.17 | COC(=O)C[C@H]1C(C)(C)[C@@H](OC(C)=O)[C@@H]2CC3C4CC(=O)O[C@@H](c5ccoc5)[C@]4(C)CCC3[C@@]1(C)C2=O (some centres not stated) [DIHYDROFISSINOLIDE]
30 | 35.54 | 62.45 | CC(=O)O[C@@H]1C[C@H]2C(C)(C)C(=O)CC[C@]2(C)[C@H]2CC[C@@]3(C)[C@H](c4ccoc4)OC(=O)[C@H]4O[C@]43[C@@]21C [DIHYDROGEDUNIN]
31 | 109.5 | 82.72 | CCCCCC1C(=O)CCC1CC(=O)OC (configuration not stated) [DIHYDROJASMONIC ACID, METHYL ESTER]
32 | 113.7 | 102.5 | CCCCCC1C(=O)CCC1CC(=O)O (configuration not stated) [DIHYDROJASMONIC ACID]
33 | 30.26 | 58.7 | COc1c(CC(=O)c2cc3c(cc2O)OC(C)(C)C(O)C3)ccc2c1C=CC(C)(C)O2 (configuration not stated) [DIHYDROMUNDULETONE]
34 | 94.2 | 85.01 | Cc1cc(=O)c2c(O)c3c(cc2o1)OCC(C)CC3 (configuration not stated) [DIHYDROPTAEROXYLIN]
35 | 73.61 | 70.94 | COc1ccc(-c2c(O)c3c(OC)c4c(cc3oc2=O)OC(C)(C)CC4)cc1 [DIHYDROROBUSTIC ACID]
36 | 75.05 | 104.1 | CC(=O)O[C@@H]1c2c(ccc3ccc(=O)oc23)OC(C)(C)[C@@H]1OC(=O)CC(C)C [DIHYDROSAMIDIN]
37 | 127.1 | 116.8 | Cc1cc(=O)c2c(O)c3c(cc2o1)OC(C)(C)CC3 [DIHYDROSPATHELIACHROMENE]
38 | 26.71 | 80.81 | COc1ccc([C@@H]2Sc3ccccc3N(CCN(C)C)C(=O)[C@@H]2OC(C)=O)cc1.Cl [DILTIAZEM HYDROCHLORIDE]
39 | 115.1 | 102.7 | CS(C)(=O)=O [DIMETHYL SULFONE]
40 | 98.02 | 106.4 | Cc1c(C(N)=O)cc([N+](=O)[O-])cc1[N+](=O)[O-] [DINITOLMIDE]
41 | 67.13 | 93.34 | COc1ccc(-c2cc(=O)c3c(O)cc(O[C@@H]4O[C@H](CO[C@@H]5O[C@@H](C)[C@H](O)[C@@H](O)[C@H]5O)[C@@H](O)[C@H](O)[C@H]4O)cc3o2)cc1O [DIOSMIN]
